Measured values: patent publication EP4775571A1, “LPAR1 ANTAGONIST AND USE THEREOF” (Haisco Pharmaceutical Group Co., Ltd., priority 2023, dated 2025)
Where two headings read alike, the source gives them in different places.

Assays:
LPAR1 = molecular target: T1, LPAR1 (Homo sapiens, UniProt Q92633); assay: Cell calcium flux assay (antagonist mode, LPA at EC80, FLIPR); type: cell-based
T1 construct: expressed in transfected cells; host or cells: CHO (CHO-LPA1 cells)
Method: • 1) The test compound was diluted to a 400X stock solution with DMSO in a 384-well plate. • 2) 1 µl of compound solution from step 1 was transferred into 39 ul of assay buffer to prepare a 10X working solution in a 384-well plate using a Bravo automated liquid handling platform. • 3) CHO-LPA1 cells were cultured in F12 medium (10% FBS). • 4) When cells reached 80% confluence, the cells were dissociated using 0.25% trypsin-EDTA. • 5) Cell density was determined and the cells were diluted to 4x10e5/ml using F12 (10% FBS). • 6) 30 µl of the cell suspension was dispensed into a 384-well plate (corning 3764#) using a multidrop automated dispenser, resulting in 12,000 cells per well. The plate was incubated at 37°C with 5% CO2 for 18-20 hours. • 7) The medium was replaced with 25 uL of serum-free medium and incubated overnight. • 8) 10 ul of 3.5X loading dye was added to each well of the cell plate. The plate was incubated in the dark at 37°C with 5% CO2 for 0.5-1 hours. • 9) After incubation, 5 µl of the 10X working solution from step 2 was transferred to the cell plate. • 10) The cell plate was incubated in the dark at 25°C for 15 minutes, and then the calcium signals were read. • 11) A 5X agonist (LPA) working solution in 1X HBSS+20 mM HEPES+0.1% BSA was prepared in a 384-well assay plate (greiner 784075#), with at least 20 µl per well. The agonist concentration used in this assay was determined based on the dose-response curve from a prior agonist mode experiment, with the EC80 value serving as the final agonist concentration. • 12) Data were read and saved using FLIPR at room temperature with the specified settings. • 13) The signal values were plotted against compound concentrations, and the curve fitting was performed and the IC50 values were calculated using nonlinear regression analysis in GraphPad Prism software.
IC50 values are represented by grades A, B, C, and D, where A represents 0 < IC50 ≤ 10 nM, B represents 10 nM < IC50 ≤ 50 nM, C represents 50 nM < IC50 ≤ 100 nM, and D represents IC50 > 100 nM. Table 1 Antagonistic activity of the compounds of the present invention against LPAR1

[1] = Pharmacokinetic test in mice; type: in vivo, C57 mice; conditions: for pharmacokinetic characteristics in mice: conclusion in words; for Vd: read-out: Vdss
Method: 2.1 Experimental animals: Male C57 mice, 20-25 g, 6 mice/compound, purchased from Chengdu Ddossy Experimental Animals Co., Ltd.
2.2 Experimental design: On the day of the experiment, the C57 mice were randomly grouped according to their body weights. The animals were fasted with water available for 12-14 h one day before the administration, and were fed 4 h after the administration. Table 2. Administration information
Before and after administration, 0.06 mL of blood was taken from the orbit under isoflurane anaesthesia and placed in an EDTAK2 centrifuge tube. The tube was centrifuged at 5000 rpm at 4°C for 10 min, and plasma was collected. The blood collection time points for the intravenous administration group and oral gavage administration group were: 0 min, 5 min, 15 min, 30 min, 1 h, 2 h, 4 h, 6 h, 8 h, and 24 h. Before analysis and detection, all samples were stored at -80°C, and the samples were quantitatively analysed by LC-MS/MS. Table 3. Pharmacokinetic parameters of test compounds in plasma of mice

[2] = CHO-LPA1 cells, calcium flux, grades, read-out: LPAR1 IC50
[3] = mouse, iv, mice, i.v. (1 mg/kg), plasma
[4] = mouse, po, mice, i.g. (3 mg/kg), plasma
[5] = antagonistic activity against the LPAR1 receptor, read-out: IC50 values

T1 sequence (Q92633 whole entry): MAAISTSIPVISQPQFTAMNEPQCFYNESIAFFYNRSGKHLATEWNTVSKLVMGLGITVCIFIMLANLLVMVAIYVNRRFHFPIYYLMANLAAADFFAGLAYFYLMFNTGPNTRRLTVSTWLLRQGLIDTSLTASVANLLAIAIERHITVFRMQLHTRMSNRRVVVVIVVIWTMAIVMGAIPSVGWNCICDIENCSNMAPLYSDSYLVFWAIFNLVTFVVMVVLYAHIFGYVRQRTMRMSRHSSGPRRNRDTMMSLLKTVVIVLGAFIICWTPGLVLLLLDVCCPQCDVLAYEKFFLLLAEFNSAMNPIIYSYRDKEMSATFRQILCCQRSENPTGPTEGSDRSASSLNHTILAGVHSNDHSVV

Row | IC50 (LPAR1; [2]) [µM] | SMILES | IC50 (LPAR1; [5]) [µM] | also measured
1 | < 0.01 | C=C1CC(N(C)C(=O)OCc2c(-c3ccc(NC(=O)C4C(C(=O)O)C4(F)F)c(C)n3)nnn2C)C1 (single isomer, unassigned) [Compound 34-2] | – | –
2 | < 0.01 | C=C1CC(CN(C)C(=O)OCc2c(-c3ccc(NC(=O)C4C(C(=O)O)C4(F)F)c(C)n3)nnn2C)C1 (single isomer, unassigned) [Compound 35-2] | – | –
3 | 0.01 to 0.05 | Cc1nc(-c2nnn(C)c2CNC(=O)OC2CC(=C(F)F)C2)ccc1OC1CCCCC(C(=O)O)C1 (single isomer, unassigned) [Compound 48-2] | – | –
4 | < 0.01 | C=C1CC(CN(C)C(=O)OCc2c(-c3ccc(O[C@H]4CCC[C@H](C(=O)O)C4)c(C)n3)nnn2C)C1 [Compound 5] | 0.002 | –
5 | < 0.01 | CC=C1CC(N(C)C(=O)OCc2c(-c3ccc(O[C@H]4CCC[C@H](C(=O)O)C4)c(C)n3)nnn2C)C1 (some centres unmarked) [Compound 7] | 0.002 | –
6 | < 0.01 | C=C1CC(COC(=O)NCc2c(-c3ccc(O[C@H]4CCC[C@H](C(=O)O)C4)c(C)n3)nnn2C)C1 [Compound 11] | – | –
7 | 0.01 to 0.05 | Cc1nc(-c2nnn(C)c2COC(=O)N(C)CC2CC(=C(F)F)C2)ccc1O[C@H]1CCC[C@H](C(=O)O)C1 (some centres unmarked) [Compound 13] | – | –
8 | < 0.01 | Cc1nc(-c2nnn(C)c2COC(=O)N(C)CCOC(F)(F)F)ccc1O[C@H]1CCC[C@H](C(=O)O)C1 [Compound 14] | – | –
9 | < 0.01 | CC(C)=C1CC(N(C)C(=O)OCc2c(-c3ccc(O[C@H]4CCC[C@H](C(=O)O)C4)c(C)n3)nnn2C)C1 (some centres unmarked) [Compound 18] | – | –

Row | SMILES | IC50 (LPAR1; [2]) [µM] | IC50 (LPAR1; [5]) [µM] | also measured
10 | C=C1CC(N(C)C(=O)OCc2c(-c3ccc(OCC4C(C(=O)O)C4(F)F)c(C)n3)nnn2C)C1 (single isomer, unassigned) [Compound 32-1] | < 0.01 | – | –
11 | C=C1CC(N(C)C(=O)OCc2c(-c3ccc(OCC4C(C(=O)O)C4(F)F)c(C)n3)nnn2C)C1 (single isomer, unassigned) [Compound 32-4] | < 0.01 | – | –
12 | C=C1CC(N(C)C(=O)OCc2c(-c3ccc(O[C@H]4CCC[C@H](C(=O)O)C4)c(C)n3)nnn2C)C1 [Compound 4] | < 0.01 | 0.002 | pharmacokinetic characteristics in mice [1]: excellent pharmacokinetic characteristics; C0 or Cmax ([1]; mice, i.g. (3 mg/kg), plasma): 0.687 ± 0.331 µg/mL; C0 or Cmax ([1]; mice, i.v. (1 mg/kg), plasma): 1.066 ± 0.134 µg/mL; AUC(0-t) [1, 3]: 0.51 ± 0.095 µg·h/mL; clearance [1, 3]: 1.99 ± 0.336 L/h/kg; Vd [1, 3]: 5.11 ± 1 L/kg; bioavailability ([1]; mouse, plasma, po, mice, i.g. (3 mg/kg)): ≥ 98%; AUC(0-t) [1, 4]: 2.18 ± 0.672 µg·h/mL
13 | Cc1nc(-c2nnn(C)c2COC(=O)N(C)C2CC(=C(F)F)C2)ccc1O[C@H]1CCC[C@H](C(=O)O)C1 (some centres unmarked) [Compound 12] | < 0.01 | 0.002 | pharmacokinetic characteristics in mice [1]: excellent pharmacokinetic characteristics; C0 or Cmax ([1]; mice, i.g. (3 mg/kg), plasma): 0.581 ± 0.018 µg/mL; C0 or Cmax ([1]; mice, i.v. (1 mg/kg), plasma): 1.938 ± 0.258 µg/mL; AUC(0-t) [1, 3]: 0.962 ± 0.131 µg·h/mL; clearance [1, 3]: 1.05 ± 0.144 L/h/kg; Vd [1, 3]: 2.57 ± 0.23 L/kg; AUC(0-t) [1, 4]: 1.45 ± 0.081 µg·h/mL
14 | Cc1nc(-c2nnn(C)c2COC(=O)N(C)OC2CCC2)ccc1O[C@H]1CCC[C@H](C(=O)O)C1 [Compound 15] | 0.01 to 0.05 | – | –
15 | C=C1CCC(CN(C)C(=O)OCc2c(-c3ccc(O[C@H]4CCC[C@H](C(=O)O)C4)c(C)n3)nnn2C)CC1 [Compound 19] | < 0.01 | 0.002 | –
